Target: T1, DNA topoisomerase I (Homo sapiens, UniProt P11387)
T1 construct: DNA topoisomerase I was purified to homogeneity from chronic human leukemic cells; from tissue; host or cells: chronic human leukemic cells (endogenous enzyme, purified)
T1 sequence (P11387 1-765): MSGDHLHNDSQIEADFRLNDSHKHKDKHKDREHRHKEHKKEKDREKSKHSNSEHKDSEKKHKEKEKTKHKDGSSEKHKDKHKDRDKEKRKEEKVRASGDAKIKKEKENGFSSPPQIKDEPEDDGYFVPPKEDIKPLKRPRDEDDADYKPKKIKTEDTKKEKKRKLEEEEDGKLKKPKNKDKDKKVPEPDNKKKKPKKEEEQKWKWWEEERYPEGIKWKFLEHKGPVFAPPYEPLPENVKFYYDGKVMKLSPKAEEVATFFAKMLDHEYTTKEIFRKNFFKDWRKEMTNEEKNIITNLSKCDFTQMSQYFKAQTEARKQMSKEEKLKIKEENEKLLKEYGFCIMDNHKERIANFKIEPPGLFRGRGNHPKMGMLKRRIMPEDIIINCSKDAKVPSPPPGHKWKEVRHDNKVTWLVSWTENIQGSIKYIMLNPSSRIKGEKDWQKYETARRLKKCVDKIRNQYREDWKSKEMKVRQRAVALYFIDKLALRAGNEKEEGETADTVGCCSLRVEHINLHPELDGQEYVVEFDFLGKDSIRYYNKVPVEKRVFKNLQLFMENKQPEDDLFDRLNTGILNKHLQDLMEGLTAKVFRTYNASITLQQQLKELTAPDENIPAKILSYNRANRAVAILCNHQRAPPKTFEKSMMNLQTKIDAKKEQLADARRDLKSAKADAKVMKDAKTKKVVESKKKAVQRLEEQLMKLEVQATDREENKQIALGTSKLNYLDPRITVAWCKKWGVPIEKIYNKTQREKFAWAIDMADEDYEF
Experiment: Topoisomerase I inhibition, supercoiled pBR 322 DNA relaxation assay
Assay type: biochemical
Conditions: gel analysis, Figure 5
Excerpt: Topoisomerase I inhibitory activity was monitored by using the supercoiled pBR 322 DNA relaxation assay according to a published procedure [Liu et al., Proc. Natl. Acad. Sci., U.S.A., 76, 3487 ([…])].
DNA topoisomerase I was purified to homogeneity from chronic human leukemic cells. Plasmid pBR 322 DNA was purified by phenol deproteinization of cleared lysates followed by CsCl/ethidium isopycnic centrifugation and gel filtration.

SMILES | potency in topoisomerase I inhibition compared with standard camptothecin (in words) | potency in topoisomerase I inhibition relative to standard camptothecin (fold potency versus camptothecin)
CC(=O)O[C@@H]1CC[C@@]2(C)[C@@H](CC[C@]3(C)[C@@H]2CC=C2[C@@H]4[C@@H](C)[C@H](C)CC[C@]4(C)CC[C@]23C)[C@@]1(C)C(=O)O [B-1, β-boswellic acid acetate] | comparable potency | 
CC(=O)O[C@@H]1CC[C@@]2(C)[C@@H](CC[C@]3(C)[C@@H]2CC=C2[C@@H]4CC(C)(C)CC[C@]4(C)CC[C@]23C)[C@@]1(C)C(=O)O [A-1, α-boswellic acid acetate] |  | ~3 X

Source: patent EP0431076B1, “PENTACYCLIC TRITERPENOID COMPOUNDS AS TOPOISOMERASE INHIBITORS OR CELL DIFFERENTIATION INDUCERS” (RESEARCH TRIANGLE INSTITUTE, priority 1988, dated 1990)
